Data taken from the NIST ThermoML archive (doi:10.1021/acs.jced.7b00578).
Several values for one entry are separate records, joined by “and”; a condition that tells them apart may be missing. Identical values can stand only once. ± gives the expanded uncertainty stated by the source.

Experiments:
[1] = molar heat capacity at constant pressure; details: 101.33 kPa, Liquid, Extra sensitive DSC
[2] = Liquid, Closed cell (Static) method

CC1COC(=O)O1 (stereo unspecified) [4-methyl-1,3-dioxolan-2-one]
Details	molar heat capacity at constant pressure [J/K/mol]	vapor or sublimation pressure
[1], 262.22 K	162.94 ± 6.3	–
[1], 265 K	163.34 ± 6.3	–
[1], 270 K	164.16 ± 6.4	–
[1], 275 K	164.98 ± 6.4	–
[1], 280 K	165.79 ± 6.4	–
[1], 285 K	166.61 ± 6.5	–
[1], 290 K	167.53 ± 6.5	–
[1], 295 K	168.45 ± 6.5	–
[1], 300 K	169.37 ± 6.6	–
[1], 305 K	170.29 ± 6.6	–
[1], 310 K	171.2 ± 6.6	–
[1], 315 K	172.23 ± 6.7	–
[1], 320 K	173.14 ± 6.7	–
[1], 325 K	174.17 ± 6.8	–
[1], 330 K	175.19 ± 6.8	–
[1], 335 K	176.11 ± 6.8	–
[1], 340 K	177.13 ± 6.9	–
[1], 345 K	178.15 ± 6.9	–
[1], 350 K	179.17 ± 6.9	–
[1], 355 K	180.09 ± 7	–
[1], 357.99 K	180.7 ± 7	–
[2], 278.19 K	–	0.00132 ± 0.00013 kPa
[2], 278.37 K	–	0.00133 ± 0.00013 kPa
[2], 278.39 K	–	0.00133 ± 0.00013 kPa
[2], 283.31 K	–	0.00214 ± 0.00015 kPa
[2], 283.32 K	–	0.00214 ± 0.00015 kPa
[2], 288.19 K	–	0.00332 ± 0.00017 kPa
[2], 288.2 K	–	0.00333 ± 0.00017 kPa
[2], 288.22 K	–	0.00332 ± 0.00017 kPa
[2], 293.12 K	–	0.00511 ± 0.00022 kPa
[2], 293.14 K	–	0.00512 ± 0.00022 kPa
[2], 293.15 K	–	0.00514 ± 0.00023 kPa and 0.00511 ± 0.00022 kPa
[2], 298.1 K	–	0.00778 ± 0.00032 kPa
[2], 298.11 K	–	0.00778 ± 0.00032 kPa
[2], 298.12 K	–	0.00777 ± 0.00032 kPa
[2], 303.01 K	–	0.01158 ± 0.00046 kPa and 0.01155 ± 0.00046 kPa
[2], 303.03 K	–	0.01156 ± 0.00046 kPa
[2], 307.94 K	–	0.01701 ± 0.00058 kPa and 0.01698 ± 0.00058 kPa
[2], 307.95 K	–	0.01694 ± 0.00057 kPa and 0.01696 ± 0.00057 kPa
[2], 312.97 K	–	0.0247 ± 0.00069 kPa and 0.02472 ± 0.00069 kPa
[2], 312.98 K	–	0.02474 ± 0.00069 kPa
[2], 312.99 K	–	0.02479 ± 0.0007 kPa
[2], 317.91 K	–	0.03529 ± 0.00086 kPa
[2], 317.92 K	–	0.0353 ± 0.00086 kPa and 0.03533 ± 0.00086 kPa and 0.03536 ± 0.00086 kPa
[2], 322.9 K	–	0.04993 ± 0.0011 kPa
[2], 322.92 K	–	0.04996 ± 0.0011 kPa and 0.05002 ± 0.0011 kPa and 0.05 ± 0.0011 kPa
[2], 327.8 K	–	0.06936 ± 0.0014 kPa
[2], 327.81 K	–	0.06935 ± 0.0014 kPa and 0.06932 ± 0.0014 kPa and 0.06938 ± 0.0014 kPa
[2], 332.89 K	–	0.09634 ± 0.0019 kPa and 0.09635 ± 0.0019 kPa
[2], 332.91 K	–	0.09643 ± 0.0019 kPa
[2], 332.92 K	–	0.09645 ± 0.0019 kPa
[2], 337.83 K	–	0.1311 ± 0.0023 kPa
[2], 337.84 K	–	0.1311 ± 0.0023 kPa and 0.1312 ± 0.0023 kPa
[2], 337.85 K	–	0.1312 ± 0.0023 kPa
[2], 342.82 K	–	0.177 ± 0.0028 kPa
[2], 342.83 K	–	0.1772 ± 0.0028 kPa
[2], 342.84 K	–	0.1773 ± 0.0028 kPa and 0.1772 ± 0.0028 kPa
[2], 347.69 K	–	0.2353 ± 0.0035 kPa
[2], 347.7 K	–	0.2354 ± 0.0035 kPa
[2], 352.55 K	–	0.3096 ± 0.0044 kPa
[2], 352.58 K	–	0.3102 ± 0.0044 kPa
[2], 352.59 K	–	0.3103 ± 0.0044 kPa
[2], 357.59 K	–	0.4078 ± 0.0056 kPa
[2], 357.6 K	–	0.4079 ± 0.0056 kPa
[2], 362.51 K	–	0.529 ± 0.0071 kPa
[2], 362.53 K	–	0.5293 ± 0.0071 kPa and 0.5294 ± 0.0071 kPa and 0.5295 ± 0.0071 kPa
